According to patent US20210275698A1, “COMPOUNDS AND COMPOSITIONS FOR TARGETING MACROPHAGES AND OTHER MANNOSE-BINDING C-TYPE LECTIN RECEPTOR HIGH EXPRESSING CELLS AND METHODS OF TREATING AND DIAGNOSIS USING SAME” (priority 2015, published 2021):

Legend:
[1] = test system: monocyte-derived CD206+ macrophages; assay: CD206 targeting assay: uptake, killing and apoptosis of monocyte-derived CD206+ macrophages; assay type: cell-based
[2] = test system: luciferase-expressing M. tuberculosis H37Rv strain (M.tb-Lux); assay: Anti-bacterial activity against M.tb in human macrophages (luminescence); assay type: cell-based; conditions: drug equivalency; up to 72 h

| SMILES | killing / toxicity to CD206 expressing macrophages (Annexin levels) ([1]; FIG. 17) | apoptosis induction (Annexin-V expression on MOs and in tumor tissue) ([1]; overnight) | lowest concentration at which activity against M.tb was maintained [2] [µM] |
| --- | --- | --- | --- |
| COc1cccc2c1C(=O)c1c(O)c3c(c(O)c1C2=O)C[C@@](O)(C(=O)CO)C[C@@H]3O[C@H]1C[C@H](N)[C@H](O)[C@H](C)O1 [Docorubicin, doxorubicin] | no toxicity | less effect | – |
| NNC(=O)c1ccncc1 [INH, isoniazid] | – | – | 0.0312 |
